Blank lines part the entries; values can stand above or below the compound they belong to.
Columns and labels:
Type in all cases: physicochemical
[1] = Solubilization of NACA in ORA-SWEET and water
Method: A study was conducted to determine the solubilization of NACA in ORA-SWEET® (Ora-Sweet is a commercially available syrup vehicle containing water, sucrose, glycerin, sorbitol, flavoring, buffering agents (citric acid and/or sodium phosphate), methyl paraben and potassium sorbate, pH 4.2 manufactured by Paddock Laboratories, Inc., Minneapolis, Minnesota). HPLC equipment and glass containers and stirrers were utilized.
Therefore, NACA was dissolved in 50 mL water followed by 50 mL Ora-Sweet, shaken to dissolve in an opaque plastic bottle with closure and provided to subject for self-administration (oral ingestion).

[2] = Micronization of NACA and stability of the 1% NACA formulation
Description: The relation between micronization conditions and an initial increase of the degradation product diNACA was further investigated. […] Therefore, the zirconium oxide milling process was further investigated and successfully optimized regarding particle size distribution, milling parameters and impurity profile for the 1% NACA formulation. […] The particle size distribution by laser diffraction analysis was ×10=1.3 μm, ×50=4.7 μm and ×90=12.3 μm. Batches were prepared and found to be stable for up to 4 weeks at ambient temperature.

[3] = Oxidation of NACA on exposure to air; settings: exposed to air
Description: These efforts to increase purity focused on the major impurities as measured by HPLC, namely, diNACA, DTT and cyclic DTT. […] Ethanol and methyl t-butyl Ether (MTBE) used in the reduction and solvent-exchange were degassed in an effort to reduce diNACA.

[4] = Stability of NACA/excipient mixtures (excipient screening); settings: NACA/excipient mixtures after 4 weeks at 40° C./75% RH
Method: NACA Tablets, 250 mg, are packaged in high density polyethylene (HDPE) bottles with foil induction seal and a white polyproplyene screw-top closure. Excipients used for the formulation meet compendial standards. Lactose functions as a filler. Microcrystalline cellulose functions as a filler. Croscarmellose Sodium functions as a disintegrant. Stearic Acid functions as a lubricant. Excipients were screened by assessing the stability of NACA in mixtures with each excipient.

[5] = Stability and dissociation of NACA/urea co-crystal (secondary co-crystal screen)
Method: NACA/Urea Co-crystal. A primary co-crystal screen was conducted where 28 potential co-crystal formers (CCFs) were screened (Table 18) in 6 solvent systems under 2 process relevant crystallization conditions, namely, thermal maturation and evaporation. A NACA/urea co-crystal was identified (FIG. 15). […] NMR analysis confirmed an approximate stoichiometric content of urea contained within the material. The material appeared to be stable under ambient conditions and elevated temperature (80° C.) but unstable when stored at high humidity for prolonged periods, showing degradation to the diNACA. […] An additional DSC experiment with post-XRPD analysis confirmed that the exothermic event observed during the DSC cooling cycle is a recrystallization to NACA.

Stirring time required to achieve a solution ([1]; NACA at 80 mg/ml in ORA-SWEET): 20 to 30 min | Dissolution in water ([1]; water, shaking for 30 seconds): readily dissolved | Oxidation on exposure to air [3]: Oxidation of NACA occurs
SMILES: CC(=O)N[C@@H](CS)C(N)=O
Change of degradation product diNACA on micronization ([2]; stainless steel grinding jars): time dependent increase of the degradation product diNACA | Change of degradation product diNACA on micronization ([2]; zirconium oxide jars and balls): did not lead to an initial increase of the degradation product diNACA

% Assay [4]: 95.3%
SMILES: CC(=O)N[C@H](CS)C(N)=O

Stability under ambient conditions and elevated temperature ([5]; ambient conditions and 80° C.): stable | Dissociation in water and high water activity mixtures ([5]; deionized water and solvent/water mixtures with a high water activity): found to dissociate | Dissociation in organic solvents and low water activity mixtures ([5]; organic solvents and solvent/water mixtures with low water activity): No signs of dissociation | Stability at high humidity ([5]; stored at high humidity for prolonged periods, degradation to diNACA): unstable
SMILES: CC(=O)N[C@@H](CS)C(N)=O.NC(N)=O [NACA/urea pattern 1 material]

Source: patent US12662449B2 (NACUITY PHARMACEUTICALS, INC., priority 2017, dated 2026)
